Experimental findings from patent US20250368666A1, “INDAZOLE COMPOUNDS” (TYRA BIOSCIENCES, INC., priority 2022, published 2025) are described below.

SMILES strings stand for the structures.

In one test the target is T1, FGFR2 (Homo sapiens, UniProt P21802).
T1 construct: made in house; host or cells: E. coli (BL21-derived), T7 phage
The test is described as follows: Kinase binding assay (kinase-tagged T7 phage, affinity beads, qPCR), Kd. Conditions: read-out: FGFR2 (Kd nM). The procedure, abridged: (§1)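 First, phage lysates carrying tagged kinase are made in E. coli at 32° C. Next, they are combined with blocked biotin-ligand streptavidin beads and compound at 0.9% final DMSO. Finally, eluted kinase is measured by qPCR and Kd is fitted with the Hill equation.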
A general note: Real-time PCR tracks product formation cycle by cycle.

The next test concerns the target T2, FGFR1 (Homo sapiens, UniProt P11362).
T2 construct: made in house; host or cells: E. coli (BL21-derived), T7 phage
The test is described as above. Conditions: read-out: FGFR1 (Kd nM). The procedure, abridged: as §1

Another test deals with T3, FGFR3 (V555M) (Homo sapiens, UniProt P22607, V555M).
T3 construct: made in house; host or cells: E. coli (BL21-derived), T7 phage
T3 sequence (P22607 23-806 V555M): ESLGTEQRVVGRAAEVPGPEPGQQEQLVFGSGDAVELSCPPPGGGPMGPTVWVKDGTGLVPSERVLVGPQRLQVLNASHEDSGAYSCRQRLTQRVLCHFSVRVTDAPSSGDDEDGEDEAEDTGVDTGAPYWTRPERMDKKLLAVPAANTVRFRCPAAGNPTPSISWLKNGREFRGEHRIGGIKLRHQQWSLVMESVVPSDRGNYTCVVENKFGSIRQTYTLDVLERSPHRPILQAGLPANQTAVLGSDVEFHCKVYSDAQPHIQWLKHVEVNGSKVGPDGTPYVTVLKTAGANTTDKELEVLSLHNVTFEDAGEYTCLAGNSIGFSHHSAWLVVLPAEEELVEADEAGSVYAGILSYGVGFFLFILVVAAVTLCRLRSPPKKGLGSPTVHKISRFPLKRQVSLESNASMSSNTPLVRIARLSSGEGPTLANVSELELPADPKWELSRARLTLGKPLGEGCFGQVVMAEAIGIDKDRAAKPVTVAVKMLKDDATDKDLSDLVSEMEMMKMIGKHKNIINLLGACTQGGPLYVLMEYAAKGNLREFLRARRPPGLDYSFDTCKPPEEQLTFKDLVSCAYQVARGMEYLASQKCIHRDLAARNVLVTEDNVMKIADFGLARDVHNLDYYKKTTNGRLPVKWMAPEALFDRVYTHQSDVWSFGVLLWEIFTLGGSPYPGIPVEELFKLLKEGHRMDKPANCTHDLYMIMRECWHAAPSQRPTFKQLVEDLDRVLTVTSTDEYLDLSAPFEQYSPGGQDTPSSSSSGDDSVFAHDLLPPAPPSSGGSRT
The test is described as above. Conditions: V555M mutant; read-out: FGFR3 (V555M) (Kd nM). The procedure, abridged:
as §1

In another test the target is T4, FGFR3 (Homo sapiens, UniProt P22607).
T4 construct: made in house; host or cells: E. coli (BL21-derived), T7 phage
T4 sequence (P22607 23-806): as the sequence (P22607 23-806 V555M) above, with M533V counted along it
Described as above. The conditions noted are these: read-out: FGFR3 (Kd nM). A digest of the protocol:
as §1

The next test has as its target T5, FGFR4 (Homo sapiens, UniProt P22455).
T5 construct: made in house; host or cells: E. coli (BL21-derived), T7 phage
The description is as above. Conditions: read-out: FGFR4 (Kd nM). The procedure, abridged: as §1

Test [1] has as its system RT112/84 cell line (FGFR3-fusion). The test is described as follows: Cancer cell line cell viability assay (Cell Titer-Glo), 72 hr. The format is cell-based. The conditions noted are these: Homo sapiens. A digest of the protocol: (§2)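 Intracellular ATP was measured by Cell Titer-Glo 2.0 luminescence after cells were incubated with compound dilutions (top 3 μM, 4-fold, 9 doses). Values were expressed relative to DMSO-treated cells and IC50 was calculated from a variable-slope dose-response curve.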

Test [2] concerns KG-1 cell line (FGFR 1-fusion). The description is as above. The conditions noted are these: Homo sapiens. The format is cell-based. A digest of the protocol: as §2
Test [3] relates to KATO-III cell line (FGFR2 amplification). The test is described as above. The format is cell-based. The conditions noted are these: Homo sapiens. The procedure, abridged:
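Following overnight attachment, each line receives compound in triplicate across nine 4-fold dilutions starting at 3 μM, with DMSO backfill for equal solvent. Luminescence after Cell Titer-Glo 2.0 addition gives percent viability versus DMSO control, fitted by 4-parameter logistic for IC50.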

[4] abbreviates: RT112/84, RT112/84 cell line (FGFR3-fusion).
The mark [5] stands for this setting: KG-1, KG-1 cell line (FGFR1-fusion).

T5 sequence (P22455 22-802): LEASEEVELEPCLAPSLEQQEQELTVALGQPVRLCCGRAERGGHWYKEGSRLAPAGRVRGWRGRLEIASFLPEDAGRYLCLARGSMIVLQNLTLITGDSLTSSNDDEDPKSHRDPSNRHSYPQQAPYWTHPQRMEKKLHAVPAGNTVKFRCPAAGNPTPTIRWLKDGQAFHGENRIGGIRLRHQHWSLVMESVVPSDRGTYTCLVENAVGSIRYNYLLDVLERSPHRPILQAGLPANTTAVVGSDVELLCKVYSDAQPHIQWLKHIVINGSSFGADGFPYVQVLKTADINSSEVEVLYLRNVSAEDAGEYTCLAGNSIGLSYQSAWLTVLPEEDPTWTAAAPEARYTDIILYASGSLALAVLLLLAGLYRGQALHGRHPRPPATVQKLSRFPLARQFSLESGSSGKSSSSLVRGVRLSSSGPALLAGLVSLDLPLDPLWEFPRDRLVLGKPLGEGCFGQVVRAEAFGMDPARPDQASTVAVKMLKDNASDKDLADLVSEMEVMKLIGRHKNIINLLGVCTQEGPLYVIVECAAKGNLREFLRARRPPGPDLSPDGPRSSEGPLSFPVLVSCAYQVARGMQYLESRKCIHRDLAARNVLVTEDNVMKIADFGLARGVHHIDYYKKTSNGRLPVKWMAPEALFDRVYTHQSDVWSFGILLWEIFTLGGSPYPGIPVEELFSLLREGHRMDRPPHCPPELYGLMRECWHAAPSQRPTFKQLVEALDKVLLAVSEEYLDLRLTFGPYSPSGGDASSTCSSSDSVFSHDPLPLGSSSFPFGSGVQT
T1 sequence (P21802 22-821): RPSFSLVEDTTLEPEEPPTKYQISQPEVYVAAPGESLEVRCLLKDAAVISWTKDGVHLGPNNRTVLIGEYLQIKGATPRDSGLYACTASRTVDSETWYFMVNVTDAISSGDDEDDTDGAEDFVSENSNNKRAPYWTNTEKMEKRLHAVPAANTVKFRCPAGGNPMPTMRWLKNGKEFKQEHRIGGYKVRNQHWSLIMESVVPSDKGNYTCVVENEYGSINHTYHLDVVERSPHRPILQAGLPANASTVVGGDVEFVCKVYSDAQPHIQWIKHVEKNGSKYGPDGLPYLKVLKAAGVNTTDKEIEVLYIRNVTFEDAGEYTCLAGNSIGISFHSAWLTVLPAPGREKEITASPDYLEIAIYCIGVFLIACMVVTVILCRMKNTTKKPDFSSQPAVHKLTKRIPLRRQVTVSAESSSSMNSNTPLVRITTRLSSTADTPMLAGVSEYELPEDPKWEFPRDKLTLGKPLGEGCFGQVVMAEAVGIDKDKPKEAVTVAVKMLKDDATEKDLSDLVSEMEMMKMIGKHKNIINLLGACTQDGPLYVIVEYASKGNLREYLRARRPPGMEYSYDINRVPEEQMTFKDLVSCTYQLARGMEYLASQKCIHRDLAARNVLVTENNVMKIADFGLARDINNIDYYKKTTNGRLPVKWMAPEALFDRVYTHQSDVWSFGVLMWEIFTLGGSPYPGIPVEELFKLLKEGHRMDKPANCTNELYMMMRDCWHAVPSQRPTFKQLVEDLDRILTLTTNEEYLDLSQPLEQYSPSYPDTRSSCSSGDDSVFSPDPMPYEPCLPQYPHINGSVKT
T2 sequence (P11362 22-822): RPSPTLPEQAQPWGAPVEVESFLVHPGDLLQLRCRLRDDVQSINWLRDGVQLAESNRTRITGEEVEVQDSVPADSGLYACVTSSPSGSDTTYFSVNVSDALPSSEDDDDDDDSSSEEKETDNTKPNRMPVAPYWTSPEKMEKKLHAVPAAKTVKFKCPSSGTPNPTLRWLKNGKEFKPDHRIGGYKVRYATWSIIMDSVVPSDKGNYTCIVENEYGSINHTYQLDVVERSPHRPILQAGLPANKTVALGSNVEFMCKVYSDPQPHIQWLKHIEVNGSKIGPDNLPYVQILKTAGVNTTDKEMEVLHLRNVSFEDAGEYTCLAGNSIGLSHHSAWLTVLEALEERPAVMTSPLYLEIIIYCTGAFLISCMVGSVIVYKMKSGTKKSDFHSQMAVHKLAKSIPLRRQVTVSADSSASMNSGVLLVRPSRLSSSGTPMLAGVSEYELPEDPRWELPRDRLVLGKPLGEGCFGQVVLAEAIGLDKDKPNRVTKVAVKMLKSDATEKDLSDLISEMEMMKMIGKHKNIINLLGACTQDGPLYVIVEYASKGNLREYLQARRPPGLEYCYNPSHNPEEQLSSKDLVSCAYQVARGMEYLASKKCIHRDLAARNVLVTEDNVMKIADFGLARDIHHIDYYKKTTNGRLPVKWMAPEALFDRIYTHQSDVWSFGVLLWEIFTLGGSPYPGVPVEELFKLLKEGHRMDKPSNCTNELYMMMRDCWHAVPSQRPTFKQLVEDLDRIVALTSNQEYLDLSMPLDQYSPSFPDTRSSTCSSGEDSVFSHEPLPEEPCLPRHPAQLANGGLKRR

`Cc1ncc(Cl)c([C@@H](C)Oc2ccc3[nH]nc(-c4cnc(N5CC(C)(CS(C)(=O)=O)C5)c(F)c4)c3c2)c1Cl` [Example 210, 5-[(1R)-1-(3,5-dichloro-2-methyl-4-pyridyl)ethoxy]-3-[5-fluoro-6-[3-methyl-3-(methylsulfonyl-methyl)azetidin-1-yl]-3-pyridyl]-1H-indazole]: the Kd (usually a measure of binding affinity in units of concentration) at FGFR2 was in the range of 1 to 50 nM; at FGFR1 it was 50 to 300 nM; on FGFR3 (V555M), 1 to 50 nM; on FGFR3, 1 to 50 nM; at FGFR4 it was 1 to 50 nM. Further, the IC50 (as a rule, the concentration that inhibits the measured activity by half) in test [1] (setting [4]) is 0.1 to 50 nM; in test [2] (setting [5]), 200 to 1000 nM; in test [3] (KATO III), 50 to 200 nM.

For the compound `C[C@@H](Oc1cc2c(-c3cnc(N4CC(C)(N5CCCC5)C4)c(F)c3)n[nH]c2cc1F)c1c(Cl)cncc1Cl` [Example 128, (R)-5-(1-(3,5-dichloropyridin-4-yl)ethoxy)-6-fluoro-3-(5-fluoro-6-(3-methyl-3-(pyrrolidin-1-yl)azetidin-1-yl)pyridin-3-yl)-1H-indazole], the Kd on FGFR2, on FGFR1, on FGFR3 (V555M), on FGFR3 and on FGFR4 was 1 to 50 nM each time. In addition, the IC50 in test [1] (setting [4]), in test [2] (setting [5]) and in test [3] (KATO III) was 0.1 to 50 nM each time.

`C[C@@H](Oc1cc2c(-c3cnc(N4CC5(CC5)C4)nc3)n[nH]c2cc1F)c1c(Cl)cncc1Cl` [Example 60, 3-[2-(5-azaspiro[2.3]hexan-5-yl)pyrimidin-5-yl]-5-[(1R)-1-(3,5-dichloro-4-pyridyl)ethoxy]-6-fluoro-1H-indazole]: the dissociation constant (Kd) at FGFR2 lay within 300 to 1000 nM; at FGFR1, 50 to 300 nM; on FGFR3 (V555M), 1 to 50 nM; on FGFR3, 1 to 50 nM; at FGFR4, 1 to 50 nM. In addition, the IC50 in test [1] (setting [4]) was 50 to 200 nM; in test [2] (setting [5]) it was more than 1000 nM; in test [3] (KATO III) it was more than 1000 nM.

Consider `Cc1ncc(Cl)c([C@@H](C)Oc2ccc3[nH]nc(-c4cnc(N5CC(C)(NCC6CC6)C5)c(F)c4)c3c2)c1Cl` [Example 209, N-(cyclo-propylmethyl)-1-[5-[5-[(1R)-1-(3,5-dichloro-2-methyl-4-pyridyl)ethoxy]-1H-indazol-3-yl]-3-fluoro-2-pyridyl]-3-methyl-azetidin-3-amine], for which the equilibrium dissociation constant (Kd) at FGFR2, on FGFR1, on FGFR3 (V555M), at FGFR3 and at FGFR4 was 1 to 50 nM in each case. For the same compound, the IC50 in test [1] (setting [4]), in test [2] (setting [5]) and in test [3] (KATO III) was 50 to 200 nM each time.

Take `COP(=O)(CC1(C)CN(c2ccc(-c3n[nH]c4ccc(O[C@H](C)c5c(Cl)cncc5Cl)cc34)cn2)C1)OC` [Example 214, (R)-dimethyl ((1-(5-(5-(1-(3,5-dichloropyridin-4-yl)ethoxy)-1H-indazol-3-yl)pyridin-2-yl)-3-methylazetidin-3-yl)methyl)phosphonate]: the Kd at FGFR2, on FGFR1, at FGFR3 (V555M), at FGFR3 and at FGFR4 was 1 to 50 nM throughout. Besides, the IC50 in test [1] (RT112/84 cell line (FGFR3-fusion)) lay within 0.1 to 50 nM; in test [2] (KG-1 cell line (FGFR1-fusion)) it was 50 to 200 nM; in test [3], 0.1 to 50 nM.

Consider `C[C@@H](Oc1cc2c(-c3ccc(N4CC(C)(CP(C)(C)=O)C4)nc3)n[nH]c2cc1F)c1c(Cl)cncc1Cl` [Example 67, (R)-((1-(5-(5-(1-(3,5-dichloropyridin-4-yl)ethoxy)-6-fluoro-1H-indazol-3-yl)pyridin-2-yl)-3-methylazetidin-3-yl)methyl)dimethylphos-phine oxide], for which the Kd on FGFR2, on FGFR1, on FGFR3 (V555M), on FGFR3 and on FGFR4 was 1 to 50 nM in each case. For the same compound, the IC50 in test [1] (setting [4]) fell in the range of 0.1 to 50 nM; in test [2] (setting [5]), 200 to 1000 nM; in test [3] (KATO III) it was 0.1 to 50 nM.

Take `COc1cc2[nH]nc(-c3cnc(N4CC(C)(NC[C@@H](C)O)C4)c(F)c3)c2cc1O[C@H](C)c1c(Cl)cncc1Cl` [Example 161, (R)-1-((1-(5-(5-((R)-1-(3,5-dichloropyridin-4-yl)ethoxy)-6-methoxy-1H-indazol-3-yl)-3-fluoropyridin-2-yl)-3-methylazetidin-3-yl)amino)propan-2-ol]: the Kd at FGFR2, on FGFR1, at FGFR3 (V555M), on FGFR3 and on FGFR4 was 1 to 50 nM throughout. Further, the IC50 in test [1] (setting [4]), in test [2] (setting [5]) and in test [3] (KATO III) was 0.1 to 50 nM each time.

Consider `Cc1ncc(Cl)c([C@@H](C)Oc2ccc3[nH]nc(-c4ccc(N5CC(C)(NC6COC6)C5)nc4)c3c2)c1Cl` [Example 70, 1-[5-[5-[(1R)-1-(3,5-dichloro-2-methyl-4-pyridyl)ethoxy]-1H-indazol-3-yl]-2-pyridyl]-3-methyl-N-(oxetan-3-yl)azetidin-3-amine], for which the Kd on FGFR2, at FGFR1, on FGFR3 (V555M), at FGFR3 and at FGFR4 was 1 to 50 nM each time. The IC50 in test [1] (setting [4]) fell in the range of 0.1 to 50 nM; in test [2] (setting [5]), 50 to 200 nM; in test [3] (KATO III), 0.1 to 50 nM.

For `C[C@@H](Oc1ccc2[nH]nc(-c3cnc(N4CC(C)(N5CCC5)C4)c(F)c3)c2c1)c1c(Cl)cncc1Cl` [Example 103, (R)-5-(1-(3,5-dichloropyridin-4-yl)ethoxy)-3-(5-fluoro-6-(3′-methyl-[1,3′-biazetidin]-1′-yl)pyridin-3-yl)-1H-indazole], the Kd on FGFR2, on FGFR1, on FGFR3 (V555M), on FGFR3 and at FGFR4 was 1 to 50 nM throughout. Moreover, the IC50 in test [1] (setting [4]), in test [2] (setting [5]) and in test [3] (KATO III) was 0.1 to 50 nM each time.

As for `C[C@@H]1CN(C2(C)CN(c3ccc(-c4n[nH]c5ccc(O[C@H](C)c6c(Cl)cncc6Cl)cc45)cn3)C2)CCO1` [Example 211, (R)-4-(1-(5-(5-((R)-1-(3,5-dichloropyridin-4-yl)ethoxy)-1H-indazol-3-yl)pyridin-2-yl)-3-methylazetidin-3-yl)-2-methylmorpholine], the Kd on FGFR2, at FGFR1, at FGFR3 (V555M), on FGFR3 and on FGFR4 was 1 to 50 nM in each case. The IC50 was 0.1 to 50 nM in test [1] (setting [4]), 50 to 200 nM in test [2] (setting [5]) and 0.1 to 50 nM in test [3] (KATO III).

In the case of `C[C@@H](Oc1ccc2[nH]nc(-c3cnc(N4CC(C)(N5C[C@@H]6C[C@H]5CO6)C4)c(F)c3)c2c1)c1c(Cl)cncc1Cl` [Example 218, (1S,4S)-5-(1-(5-(5-((R)-1-(3,5-dichloropyridin-4-yl)ethoxy)-1H-indazol-3-yl)-3-fluoropyridin-2-yl)-3-methylazetidin-3-yl)-2-oxa-5-aza-bicyclo[2.2.1]hep-tane], the Kd at FGFR2, at FGFR1, at FGFR3 (V555M), on FGFR3 and at FGFR4 was 1 to 50 nM throughout. For the same compound, the IC50 in test [1] (setting [4]), in test [2] (setting [5]) and in test [3] (KATO III) was 0.1 to 50 nM throughout.
